In patent US20240425464A1, “Substituted Monohydrazides as Potent Antifungal Agents” (University of Kentucky Research Foundation, priority 2023, published 2024):
Converted amounts (≈) assume the structure as drawn. Read-outs that look alike come from different tables or passages of the source.

How the values were obtained:
Assay type in all cases: cell-based, Candida albicans
[1] = system: C. albicans ATCC 90819 (D); experiment: MIC determination by in vitro antifungal assay
Description: (§1) 10 mg/mL stock solutions of compounds 1a-9j were prepared in dimethyl sulfoxide (DMSO) and were stored at −20° C. in the dark. The antifungal agent amphotericin B (AmB) was purchased from VWR (Radnor PA, USA). AmB was dissolved in DMSO at a final concentration of 5 mg/mL and was stored at −20° C., protected from light. Candida albicans American Type Culture Collection (ATCC) 10231 (strain A), C. albicans ATCC 64124 (B), and C. albicans ATCC MYA-2876 (C) were obtained from Utah State University. C. albicans ATCC 90819 (D), C. albicans ATCC MYA-2310 (E), C. albicans ATCC MYA-1237 (F), C. albicans ATCC MYA-1003 (G), Candida glabrata ATCC 2001 (H), Candida krusei ATCC 6258 (I), Candida parapsilosis ATCC 22019 (J), Cryptococcus neoformans ATCC MYA-895 (M), Aspergillus terreus ATCC MYA-3633 (N), and Aspergillus flavus ATCC MYA-3631 (0) were obtained from the American Type Culture Collection (ATCC; Manassas, VA, USA). Aspergillus nidulans ATCC 38163 (P) was obtained from University of Kentucky. Clinically derived Aspergillus fumigatus NRRL 163 (Q), A. fumigatus NRRL 5109 (R), and A. fumigatus NRRL 6113 (S) were obtained from Northern Regional Research Laboratory (NRRL). Candida auris 384 (K), C. auris 390 (L), and fungal strains 381-400 (including 10 C. auris (AR Bank #381-390), 3 Candida duobushaemulonii (AR Bank #391, AR Bank #392, and AR Bank #394), 2 Candida haemulonii (AR Bank #393 and AR Bank #395), 1 Kodameae ohmeri (AR Bank #396), 1 C. krusei (AR Bank #397), 1 Candida lusitaniae (AR Bank #398), and 2 Saccharomyces cerevisiae strains (AR Bank #399 and AR Bank #400)) were part of a larger fungal library from the AR Bank maintained by the Centers for Disease Control and Prevention (CDC; Atlanta, GA, USA). Filamentous fungi and yeasts were cultivated at 35° C. in RPMI 1640 medium (with L-glutamine, without sodium bicarbonate, Sigma-Aldrich, St. Louis, MO) buffered to a pH of 7.0 with 0.165 M morpholinepropanesulfonic acid (MOPS) buffer (Sigma-Aldrich). For cytotoxicity assays, HepG2 and the mouse macrophage cell line J774A.1 were obtained from University of Kentucky. The human embryonic kidney cell line, HEK-293, was bought from the ATCC. Mammalian cells were grown in Dulbecco's Modified Eagle's Medium (DMEM) (from VWR) with 10% fetal bovine serum (FBS) (from VWR) and 1% Pen/Strep (from ATCC). Cell lines were cultured at 37° C. with 5% CO2 and passaged by trypsinization with 0.05% trypsin: 0.53 mM EDTA (from Sigma-Aldrich).
(§2) The MIC values of compounds 1a-9j against yeast cells (strains A-P and 381-400) were determined in 96-well plates as described in the CLSI documents M27-A3 and M38-A2 with minor modifications.^2 A single colony of freshly prepared yeast cells was used to inoculate 5 mL of yeast extract peptone dextrose (YPD) broth prior to incubation overnight with shaking at 200 rpm at 35° C. From the actively growing yeast culture, 100 µL were then transferred to 900 μL of RPMI 1640 medium and re-adjusted to achieve OD600 of 0.12 (˜1×10^6 CFU/mL). The cell suspension was further diluted to achieve 1:100 in RPMI 1640 medium. 100 μL of cells were added to the wells of a 96-well microtiter plates that contained 100 µL of the compound solution to obtain concentrations of 0.06-31.3 μg/mL of compounds 1a-9j or AmB prior to incubation for 48 h at 35° C. […]

[2] = system: C. albicans ATCC 64124 (B); experiment: MIC determination by in vitro antifungal assay
Description: as §1, §2

[3] = system: C. albicans ATCC MYA-1237 (F); experiment: MIC determination by in vitro antifungal assay; conditions: strain F = C. albicans ATCC MYA-1237(R)
Description: as §1, §2

[4] = system: C. albicans ATCC MYA-1003 (G); experiment: MIC determination by in vitro antifungal assay; conditions: strain G = C. albicans ATCC MYA-1063(R) (footnote), MYA-1003 in text
Description: as §1, §2

[5] = system: C. albicans ATCC MYA-2310 (E); experiment: MIC determination by in vitro antifungal assay; conditions: strain E = C. albicans ATCC MYA-2310
Description: as §1, §2

[6] = system: C. albicans ATCC MYA-2876 (C); experiment: MIC determination by in vitro antifungal assay; conditions: strain C = C. albicans ATCC MYA-2876(S)
Description: as §1, §2

[7] = system: C. albicans ATCC 10231 (strain A); experiment: MIC determination by in vitro antifungal assay (CLSI broth dilution); conditions: strain A = C. albicans ATCC 10231, no visible growth, 48 h at 35° C.
Description: as §1, §2

[8] = Candida albicans, ATCC90819, strain D = C. albicans ATCC 90819(R), read-out: MIC
[9] = Candida albicans, ATCC64124, strain B = C. albicans ATCC 64124, read-out: MIC
[10] = Candida albicans, read-out: MIC
[11] = Candida albicans, ATCC10231, 48 h, read-out: MIC
[12] = strain D = C. albicans ATCC 90819(R)
[13] = strain B = C. albicans ATCC 64124

SMILES | MIC [1, 8] [µg/mL] | MIC [2, 9] [µg/mL] | MIC [3, 10] [µg/mL] | MIC [4, 10] [µg/mL] | MIC [5, 10] [µg/mL] | MIC [6, 10] [µg/mL] | MIC [7, 11] [µg/mL] | MIC [1, 12] [μg/mL^−1] | MIC [2, 13] [μg/mL^−1] | MIC [3] [μg/mL^−1] | MIC [4] [μg/mL^−1] | MIC [5] [μg/mL^−1] | MIC [6] [μg/mL^−1] | MIC [7] [μg/mL^−1]
COc1ccc(NNC(=O)c2ccccn2)cc1 [Compound 2f] | 0.49 (≈ 2.01 µM) | 0.98 (≈ 4.03 µM) | 0.98 (≈ 4.03 µM) | 0.98 (≈ 4.03 µM) | 0.98 (≈ 4.03 µM) | 1.95 (≈ 8.02 µM) | 0.12 (≈ 0.493 µM) |  |  |  |  |  |  | 
O=C(NNc1ccc(F)cc1F)c1ccccn1 [Compound 2g] | 0.98 (≈ 3.93 µM) | 1.95 (≈ 7.82 µM) | 0.49 (≈ 1.97 µM) | 0.49 (≈ 1.97 µM) | 31.3 (≈ 126 µM) | 0.98 (≈ 3.93 µM) | 0.12 (≈ 0.482 µM) |  |  |  |  |  |  | 
O=C(NNc1cc(F)ccc1F)c1ccccn1 [Compound 2h] | 0.98 (≈ 3.93 µM) | 1.95 (≈ 7.82 µM) | 1.95 (≈ 7.82 µM) | 0.98 (≈ 3.93 µM) | 1.95 (≈ 7.82 µM) | 3.9 (≈ 15.6 µM) | 0.12 (≈ 0.482 µM) |  |  |  |  |  |  | 
O=C(NNc1cc(F)cc(F)c1)c1ccccn1 [Compound 2i] | 0.98 (≈ 3.93 µM) | 0.98 (≈ 3.93 µM) | 1.95 (≈ 7.82 µM) | 0.49 (≈ 1.97 µM) | 0.98 (≈ 3.93 µM) | 0.98 (≈ 3.93 µM) | ≤ 0.06 |  |  |  |  |  |  | 
O=C(NNc1cc(Cl)cc(Cl)c1)c1ccccn1 [Compound 2j] | 0.98 (≈ 3.47 µM) | 1.95 (≈ 6.91 µM) | 3.9 (≈ 13.8 µM) | 1.95 (≈ 6.91 µM) | 1.95 (≈ 6.91 µM) | 1.95 (≈ 6.91 µM) | 0.24 (≈ 0.851 µM) |  |  |  |  |  |  | 
O=C(NNc1cccc(F)c1)c1ccc(F)cn1 [Compound 3a] |  |  |  |  |  |  |  | 3.9 | 0.49 | 3.9 | 1.95 | 3.9 | 3.9 | 0.49
COc1cccc(NNC(=O)c2ccc(F)cn2)c1 [Compound 3c] |  |  |  |  |  |  |  | 3.9 | 0.95 | 1.95 | 0.98 | 1.95 | 0.49 | 0.24
O=C(NNc1ccc(F)cc1)c1ccc(F)cn1 [Compound 3d] |  |  |  |  |  |  |  | 1.95 | 1.95 | 1.95 | 1.95 | 3.9 | 3.9 | 0.49
O=C(NNc1ccc(Cl)cc1)c1ccc(F)cn1 [Compound 3e] |  |  |  |  |  |  |  | 3.9 | 1.95 | 1.95 | 0.98 | 1.95 | 1.95 | 1.95
COc1ccc(NNC(=O)c2ccc(F)cn2)cc1 [Compound 3f] |  |  |  |  |  |  |  | 0.98 | 0.98 | 0.49 | 0.49 | 0.98 | 0.98 | 0.24
O=C(NNc1ccc(F)cc1F)c1ccc(F)cn1 [Compound 3g] | 1.95 (≈ 7.3 µM) | 1.95 (≈ 7.3 µM) | 1.95 (≈ 7.3 µM) | 0.98 (≈ 3.67 µM) | 1.95 (≈ 7.3 µM) | 1.95 (≈ 7.3 µM) | 0.49 (≈ 1.83 µM) |  |  |  |  |  |  | 
O=C(NNc1cccc(F)c1)c1ccc(Br)cn1 [Compound 4a] |  |  |  |  |  |  |  | 3.9 | 0.49 | 3.9 | 0.98 | 3.9 | 1.95 | 0.49
COc1cccc(NNC(=O)c2ccc(Br)cn2)c1 [Compound 4c] | 3.9 (≈ 12.1 µM) | 0.98 (≈ 3.04 µM) | 1.95 (≈ 6.05 µM) | 0.98 (≈ 3.04 µM) | 1.95 (≈ 6.05 µM) | 0.49 (≈ 1.52 µM) | 0.98 (≈ 3.04 µM) |  |  |  |  |  |  | 
O=C(NNc1ccc(F)cc1)c1ccc(Br)cn1 [Compound 4d] | 7.8 (≈ 25.2 µM) | 7.8 (≈ 25.2 µM) | 7.8 (≈ 25.2 µM) | 1.9 (≈ 6.13 µM) | 7.8 (≈ 25.2 µM) | 7.8 (≈ 25.2 µM) | 1.95 (≈ 6.29 µM) |  |  |  |  |  |  | 
COc1ccc(NNC(=O)c2ccc(Br)cn2)cc1 [Compound 4f] | 3.9 (≈ 12.1 µM) | 3.9 (≈ 12.1 µM) | 0.98 (≈ 3.04 µM) | 1.95 (≈ 6.05 µM) | 3.9 (≈ 12.1 µM) | 1.95 (≈ 6.05 µM) | 3.9 (≈ 12.1 µM) |  |  |  |  |  |  | 
O=C(NNc1ccc(F)cc1F)c1ccc(Br)cn1 [Compound 4g] | 3.9 (≈ 11.9 µM) | 15.6 (≈ 47.5 µM) | 1.95 (≈ 5.94 µM) | 15.6 (≈ 47.5 µM) | > 31.3 | 0.98 (≈ 2.99 µM) | 3.9 (≈ 11.9 µM) |  |  |  |  |  |  | 
O=C(NNc1cccc(F)c1)c1cccc(F)n1 [Compound 5a] |  |  |  |  |  |  |  | 7.8 | 0.49 | 1.95 | 1.95 | 1.95 | 3.9 | 0.49
